target: T1, human GPR119 (Homo sapiens, UniProt Q8TDV5); assay: Human GPR119 agonist activity with increase of intracellular cAMP concentration as index (CRE-luciferase reporter assay in hGPR119/CRE-luc/CHO(dhfr-) cells); format: cell-based; conditions: 1 μM test compound, 2 hr incubation; luciferase activity with 10 μM N-[4-(methylsulfonyl)phenyl]-5-nitro-6-{4-[4-(trifluoromethoxy)phenoxy]piperidin-1-yl}pyrimidin-4-amine = 100%, DMSO = 0%
T1 construct: expressed in transfected cells
T1 sequence (Q8TDV5 1-335): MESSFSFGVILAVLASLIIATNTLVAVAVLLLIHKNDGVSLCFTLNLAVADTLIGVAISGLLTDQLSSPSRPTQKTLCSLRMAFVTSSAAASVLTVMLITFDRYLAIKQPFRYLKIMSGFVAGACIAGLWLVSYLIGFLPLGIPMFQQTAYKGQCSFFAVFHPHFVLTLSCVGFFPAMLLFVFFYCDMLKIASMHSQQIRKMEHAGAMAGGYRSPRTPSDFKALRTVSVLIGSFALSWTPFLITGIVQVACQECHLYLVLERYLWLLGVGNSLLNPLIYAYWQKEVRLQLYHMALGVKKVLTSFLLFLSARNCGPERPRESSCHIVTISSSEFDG
Method: Evaluation of Human GPR119 Agonist Activity with Increase of Intracellular Camp Concentration as Index
(1) Construction of Expression Plasmid of Human GPR119 Gene
Using High Fidelity RNA PCR Kit (Takara Bio Inc.), human GPR119 gene was cloned by PCR using cDNA library synthesized from human brain mRNA (Clontech) as a template and synthetic DNA having the following sequence. Primer 1 and Primer 2 were is prepared by adding cleavage sites for Sal I and Nhe I based on the base sequence information of human GPR119 gene.
PCR was performed using Pyrobest DNA polymerase (Takara Bio Inc.). The obtained PCR product was cloned to pUC118 (Takara Bio Inc.), and the base sequence was […] and digested with restriction enzymes Sal I, Nhe I. The obtained DNA fragment was inserted into an animal cell expression vector pAKKO-111H (plasmid same as pAKKO-1.111H described in Biochem. Biophys. Acta, Hinuma, S. et al., 1219, 251-259 (1994)) similarly digested with Sal I, Nhe I, whereby an expression plasmid pAKKO-111H/hGPR119 was prepared.
(2) Construction of Reporter Plasmid
Zeocin resistance gene was cloned by PCR using plasmid pcDNA3.1/Zeo (Invitrogen) as a template, synthetic DNA having the following sequences wherein cleavage sites for restriction enzymes Sal I and BamH I are added to before and after a region containing SV40 Ori and a region containing SV40pA, which are located at the upstream and downstream of Zeocin resistance gene of this plasmid, as a primer set, and KOD polymerase (TOYOBO).
The obtained PCR product was inserted into pCR-BluntII (Invitrogen). A fragment containing a Zeocine resistance gene obtained by digesting the plasmid with restriction enzymes Sal I and BamH I was inserted into plasmid pGL3(R2.2)-Basic Vector (promega) similarly digested with Sal I and Bam HI to give Zeocin resistance plasmid pGL3(R2.2)/Zeocin-Basic Vector.
A reporter plasmid containing 4 cAMP responsive elements (CRE) connected in tandem was prepared using the following 5′-terminal phosphorylated synthetic DNA.
First, a DNA fragment containing a CRE sequence obtained by annealing CRE-Upper and CRE-Lower and elongating with KOD polymerase was inserted into pCR-BluntII to give pCR-BluntII-CRE. A fragment cleaved from pCR-BluntII-CRE with restriction enzymes Kpn I and Hind III was inserted into pGL3(R2.2)/Zeocin-Basic Vector similarly digested with Kpn I and Hind III to give reporter plasmid pGL3(R2.2)/Zeocin-CRE-luc.
(3) Introduction of Human GPR119 Gene and Reporter Gene into CHO(dhfr-) Cells and Acquirement of Expressing Cell
CHO(dhfr-) cells in MEMα (minimum essential medium alpha) (Nikken bio medical laboratory) medium containing 10% fetal bovine serum, 100 U/mL penicillin and 100 μg/mL streptomycin (Invitrogen) were detached by a treatment with trypsin-EDTA (ethylenediaminetetraacetic acid) (Invitrogen), the cells were washed with PBS (Phosphate-buffered saline), centrifuged (1000 rpm, 5 min) and suspended in PBS at a cell density of 1×10^7 cells/mL. Then, DNA was introduced into the cell by a gene pulser (Bio-Rad) under the following conditions. That is, 1×10^7 cells, plasmid pGL3(R2.2)/Zeocin-CRE-luc (15 μg), which was obtained in (2) and linearized with BssH II, and pAKKO-111H (5 μg) were added in a 0.4 cm gap cuvette, and the mixture was electroporated at voltage […], capacitance 950 μF. The cells were placed in the above-mentioned medium, cultured for 24 hr, and the cells were detached and centrifuged. The cells were diluted to 250 cells/well, plated in a 96 well plate (Corning) and cultivated in a CO2 incubator at 37° C. to give a transformant. Then, forskolin was added to the obtained transformant and a strain (CRE-luc/CHO(dhfr-) cell) that induces luciferase expression was selected. […]

In order of falling “GPR119 agonist activity (%) at 1 μM concentration” value:
1. CCc1cnc(N2CCC(N(c3cc(N4CCc5cc(S(C)(=O)=O)ccc54)ncn3)C(F)(F)F)CC2)nc1 [Example 69, N-[1-(5-ethylpyrimidin-2-yl)piperidin-4-yl]-6-[5-(methylsulfonyl)-2,3-dihydro-1H-indol-1-yl]-N-(trifluoromethyl)pyrimidin-4-amine]  98%
2. CC(C)OC(=O)N1CCC(n2ccc3c(N4CCc5cc([N+](=O)[O-])ccc54)ncnc32)CC1 [Example 7, 1-methylethyl 4-[4-(5-nitro-2,3-dihydro-1H-indol-1-yl)-7H-pyrrolo[2,3-d]pyrimidin-7-yl]piperidine-1-carboxylate]  96%
3. CC(C)OC(=O)N1CCC(n2ccc3c(N4CCc5cc(N6CCCC6=O)ccc54)ncnc32)CC1 [Example 10, 1-methylethyl 4-{4-[5-(2-oxopyrrolidin-1-yl)-2,3-dihydro-1H-indol-1-yl]-7H-pyrrolo[2,3-d]pyrimidin-7-yl}piperidine-1-carboxylate]  93%
4. Cc1cnc(N2CCC(N(c3cc(N4CCc5cc(S(C)(=O)=O)ccc54)ncn3)C(F)(F)F)CC2)nc1 [Example 73, N-[1-(5-methylpyrimidin-2-yl)piperidin-4-yl]-6-[5-(methylsulfonyl)-2,3-dihydro-1H-indol-1-yl]-N-(trifluoromethyl)pyrimidin-4-amine]  88%
5. CC(C)(C)SC(=O)N1CCC(Oc2cc(N3CCc4cc(S(C)(=O)=O)ccc43)ncn2)CC1 [Example 36, S-tert-butyl 4-({6-[5-(methylsulfonyl)-2,3-dihydro-1H-indol-1-yl]pyrimidin-4-yl}oxy)piperidine-1-carbothioate]  87%
6. CC(C)(C)OC(=O)N1CCC(n2ccc3c(N4CCc5cc(S(C)(=O)=O)ccc54)ccnc32)CC1 [Example 3, tert-butyl 4-{4-[5-(methylsulfonyl)-2,3-dihydro-1H-indol-1-yl]-1H-pyrrolo[2,3-b]pyridin-1-yl}piperidine-1-carboxylate]  87%
7. CC(C)SC(=O)N1CCC(Oc2cc(N3CCc4cc(NC(=O)C5CCCO5)ccc43)ncn2)CC1 [Example 50, S-(1-methylethyl)4-{[6-(5-{[(2R)-tetrahydrofuran-2-ylcarbonyl]amino}-2,3-dihydro-1H-indol-1-yl)pyrimidin-4-yl]oxy}piperidine-1-carbothioate]  85%
8. CSC(=O)N1CCC(Oc2cc(N3CCc4cc(S(C)(=O)=O)ccc43)ncn2)CC1 [Example 61, S-methyl 4-({6-[5-(methylsulfonyl)-2,3-dihydro-1H-indol-1-yl]pyrimidin-4-yl}oxy)piperidine-1-carbothioate]  85%
9. CC(C)SC(=O)N1CCC(Oc2cc(N3CCc4cc(S(C)(=O)=O)cc(F)c43)ncn2)CC1 [Example 62, S-(1-methylethyl) 4-({6-[7-fluoro-5-(methylsulfonyl)-2,3-dihydro-1H-indol-1-yl]pyrimidin-4-yl}oxy)piperidine-1-carbothioate]  83%
10. CC(C)(C)OC(=O)N1CC(Cn2ccc3c(N4CCc5cc(S(C)(=O)=O)ccc54)ncnc32)C1 [Example 14, tert-butyl 3-({4-[5-(methylsulfonyl)-2,3-dihydro-1H-indol-1-yl]-7H-pyrrolo[2,3-d]pyrimidin-7-yl}methyl)azetidine-1-carboxylate]  82%
11. CC(C)SC(=O)N1CCC(N(c2cc(N3CCc4cc(S(C)(=O)=O)ccc43)ncn2)C(F)(F)F)CC1 [Example 71, S-(1-methylethyl) 4-[{6-[5-(methylsulfonyl)-2,3-dihydro-1H-indol-1-yl]pyrimidin-4-yl}(trifluoromethyl)amino]piperidine-1-carbothioate]  82%
12. COCC(=O)Nc1ccc2c(c1)CCN2c1cc(OC2CCN(C(=O)SC(C)C)CC2)ncn1 [Example 60, S-(1-methylethyl) 4-[(6-{5-[(methoxyacetyl)amino]-2,3-dihydro-1H-indol-1-yl}pyrimidin-4-yl)oxy]piperidine-1-carbothioate]  81%
13. CCc1cnc(N2CCC(Oc3cc(N4CCc5cc(C(=O)N(C)CCO)ccc54)ncn3)CC2)nc1 [Example 21, 1-(6-{[1-(5-ethylpyrimidin-2-yl)piperidin-4-yl]oxy}pyrimidin-4-yl)-N-(2-hydroxyethyl)-N-methyl-2,3-dihydro-1H-indole-5-carboxamide]  80%
14. CC(C)c1noc(N2CCC(Oc3cc(N4CCc5cc(C(=O)N(C)CCO)ccc54)ncn3)CC2)n1 [Example 30, N-(2-hydroxyethyl)-N-methyl-1-[6-({1-[3-(1-methylethyl)-1,2,4-oxadiazol-5-yl]piperidin-4-yl}oxy)pyrimidin-4-yl]-2,3-dihydro-1H-indole-5-carboxamide]  78%
15. COc1cnc(N2CCC(N(c3cc(N4CCc5cc(S(C)(=O)=O)ccc54)ncn3)C(F)(F)F)CC2)nc1 [Example 72, N-[1-(5-methoxypyrimidin-2-yl)piperidin-4-yl]-6-[5-(methylsulfonyl)-2,3-dihydro-1H-indol-1-yl]-N-(trifluoromethyl)pyrimidin-4-amine]  77%
16. CCc1cnc(N2CCC(Oc3cc(N4CCc5cc(C(=O)N6CCOCC6)ccc54)ncn3)CC2)nc1 [Example 27, [1-(6-{[1-(5-ethylpyrimidin-2-yl)piperidin-4-yl]oxy}pyrimidin-4-yl)-2,3-dihydro-1H-indol-5-yl](morpholin-4-yl)methanone]  77%
17. CC(C)(C)OC(=O)N1CCCC(n2ccc3c(N4CCc5cc(S(C)(=O)=O)ccc54)ncnc32)CC1 (centres unmarked) [Example 16, tert-butyl 4-{4-[5-(methylsulfonyl)-2,3-dihydro-1H-indol-1-yl]-7H-pyrrolo[2,3-d]pyrimidin-7-yl}azepane-1-carboxylate]  77%
18. COCC(=O)Nc1ccc2c(c1)CCN2c1cc(OC2CCN(C(=O)OC(C)C)CC2)ncn1 [Example 59, isopropyl 4-[(6-{5-[(methoxyacetyl)amino]-2,3-dihydro-1H-indol-1-yl}pyrimidin-4-yl)oxy]piperidine-1-carboxylate]  77%
19. CC(C)SC(=O)N1CCC(Oc2cc(N3CCc4cc(N5CCCC5=O)ccc43)ncn2)CC1 [Example 45, S-(1-methylethyl) 4-({6-[5-(2-oxopyrrolidin-1-yl)-2,3-dihydro-1H-indol-1-yl]pyrimidin-4-yl}oxy)piperidine-1-carbothioate]  75%
20. CC(C)(C)OC(=O)N1CCC(n2ccc3c(N4CCc5cc(S(C)(=O)=O)ccc54)ncnc32)CC1 [Example 1, tert-butyl 4-{4-[5-(methylsulfonyl)-2,3-dihydro-1H-indol-1-yl]-7H-pyrrolo[2,3-d]pyrimidin-7-yl}piperidine-1-carboxylate]  62%
